Data from US4994482A, “Arylpyrazol derivatives as anti-platelet agents, compositions and use” (Bristol-Myers Squibb Company, priority 1990, dated 1991).
Converted amounts (≈) assume the structure as drawn. Like-named read-outs stand apart in the source and are kept apart here.

Legend:
[1] = tested on: human platelet-rich plasma (ADP-induced platelet aggregation); assay: In vitro inhibition of ADP-induced human platelet aggregation (Born aggregometer method); format: cell-based
Method: (§1) The aggregometer method of Born, C. […] The human volunteer donor's arm is cleansed with 70% ethyl alcohol. A sterile 20 ml syringe and needle are used to withdraw 20 ml of blood.
(§2) All glassware used for preparation of PRP is silicon treated. […] The various compounds tested were dissolved in dimethylsulfoxide (DMSO) so that 5 mcl added to the platelet rich plasma would yield the desired test concentration. Vehicle control trials were done and compared with aggregation induced in platelet rich plasma containing various concentrations of the test compounds. Dose response curves were obtained and Inhibitor Concentration IC50) values calculated.

[2] = tested on: human platelet-rich plasma (collagen-induced platelet aggregation); assay: In vitro inhibition of collagen-induced human platelet aggregation (Born aggregometer method); format: cell-based; details: human PRP, 0.05 mL of a collagen suspension
Method: as §1, §2

[3] = tested on: biolaser induced thrombosis (thrombus formation); assay: In vivo inhibition of biolaser induced thrombosis in rabbit ear chamber; set-up: species or system English lop-ear rabbits
Excerpt: The laser induced thrombosis method is a modification of the technique developed by Sanders, A. G., et al. in Brit. J Exp. Pathol., 1954, 35, 331 and Grant, L., et al. in Proc. Soc. Exp. Biol. Med., 1965, 119, 1123. A detailed description of this method has been described by Fleming, J. S., et al., in Platelets and Thrombosis, A. Scriabine and S. Sherry, eds., Baltimore, Univ. Park Press, pp. 247-262, 1974 and is hereby incorporated by reference.
Briefly, Lucite ear chambers were chronically implanted in adult, English lop-ear rabbits. The animals were conditioned to lie quietly in the supine position. Localized microvascular injury was induced by focusing a single ruby laser beam through a microscope into the lumen of a vessel 10-60 μM in diameter. This evoked the formation of a small thrombus consisting of platelets accumulated around a core of one or two damaged red cells. Thrombus area was determined as a product of two perpendicular measurements made by using a micrometer eye piece. The mean thrombus area (μM^2) obtained for 10 trials in each rabbit served as a control value. The test compound was administered orally and post-dose trials were performed at selected times. Pharmacological activity was evaluated by comparing pre- and post-dose mean thrombus areas.

[4] = human PRP, ADP 0.5 mcg/mL, read-out: IC50 - Human PRP vs:ADP

SMILES | IC50 [1, 4] [µg/mL] | IC50 [2] [µg/mL] | other results
O=C(O)CCCCCCCCn1cc(-c2ccccc2)c(-c2ccccc2)n1 [Example 17, 3,4-Diphenyl-lH-pyrazol-1-nonanoic acid hydrate] | 1.5 |  | 
COC(=O)CCCCCCCCn1nc(-c2ccccc2)c(-c2ccccc2)c1-c1ccccc1 [Example 14, Methyl 3,4,5-triphenyl-lH-pyrazol-1-nonanoate] | 2 (≈ 4.29 µM) | 0.27 (≈ 0.579 µM) | 
OCCN(CCO)c1nc(N2CCCCC2)c2nc(N(CCO)CCO)nc(N3CCCCC3)c2n1 [dipyridamole, reference compound] |  |  | IC50 ([1]; Homo sapiens, read-out: IC50 vs. ADP): > 512 µg/mL
O=C(O)CSCCCCCCn1nc(-c2ccccc2)c(-c2ccccc2)c1-c1ccccc1 [Example 21, [[6-(3,4,5-Triphenyl-lH-pyrazol-1-yl)hexyl]thio]acetic acid] | 0.41 (≈ 0.871 µM) | 0.15 (≈ 0.319 µM) | 
O=C(O)CCCCCCCn1nc(-c2ccccc2)c(-c2ccccc2)c1-c1ccccc1 [Example 8, 3,4,5-Triphenyl-lH-pyrazol-1-octanoic acid hydrate] | 1.9 |  | 
O=C(O)CSCCCCCn1nc(-c2ccccc2)c(-c2ccccc2)c1-c1ccccc1 [Example 27, [[5-(3,4,5-Triphenyl-lH-pyrazol-1-yl)pentyl]thio]acetic acid] | 1.9 (≈ 4.16 µM) | 0.16 (≈ 0.35 µM) | 
O=C(O)CCCCCCCCCn1nc(-c2ccccc2)c(-c2ccccc2)c1-c1ccccc1 [Example 36, 3,4,5-triphenyl-lH-pyrazole-1-decanoic acid hydrate] | 3.5 |  | 
O=C(O)CCCCCCCCn1nc(-c2ccccc2)c(-c2ccccc2)c1-c1ccccc1 [Example 15, 3,4,5-Triphenyl-lH-pyrazol-1-nonanoic acid hydrate] | 0.16 | 0.068 | inhibition of thrombus formation ([3]; oral 1 mg/kg): approximately 30%; inhibition of thrombus formation ([3]; oral 10 mg/kg): over 60%; inhibition of thrombus formation ([3]; oral 30 mg/kg): over 60%
O=C(O)C[S+]([O-])CCCCCCn1nc(-c2ccccc2)c(-c2ccccc2)c1-c1ccccc1 (stereo not shown) [Example 25, [[6-(3,4,5-Triphenyl-lH-pyrazol-1-yl)hexyl]sulfinyl]acetic acid hydrate] | 3.2 |  | 
O=C(O)CCCCCCCCn1ncc(-c2ccccc2)c1-c1ccccc1 [Example 18, 4,5-Diphenyl-lH-pyrazol-1-nonanoic acid] | 2.5 (≈ 6.64 µM) | 0.45 (≈ 1.2 µM) | 
O=C(O)CCCCCCCn1ncc(-c2ccccc2)c1-c1ccccc1 [Example 44, 4,5-Diphenyl-lH-pyrazole-1-octanoic acid] | 0.6 (≈ 1.66 µM) |  | 
O=C(O)COCCCCCCn1nc(-c2ccccc2)c(-c2ccccc2)c1-c1ccccc1 [Example 4, [[6-(3,4,5-Triphenyl-lH-pyrazol-1-yl)hexyl]oxy]acetic acid] | 0.2 (≈ 0.44 µM) | 0.096 (≈ 0.211 µM) | 
c1ccc(-c2nn(CCCCCCCCc3nn[nH]n3)c(-c3ccccc3)c2-c2ccccc2)cc1 [Example 40, 5-[8-(3,4,5-Triphenyl-lH-pyrazol-1-yl)octyl]-2 H-tetrazole] | 0.5 (≈ 1.05 µM) | 0.052 (≈ 0.109 µM) | 
O=C(O)CCCC=CCCCn1nc(-c2ccccc2)c(-c2ccccc2)c1-c1ccccc1 [Example 10, (Z) and (E)-9-(3,4,5-Triphenyl-lH-pyrazol-1-yl)-5-nonenoic acid hydrate] | 0.35 | 0.12 | 
